The source made the active and inactive calls. The calls are words filed in the database; no cut-off is given here.
Experiments:
[1] = Stability in mouse plasma assessed as parent compound remaining measured after 2 hrs by LC-MS/MS analysis; format: ADME, cell-free; settings: read-out: Stabilty
[2] = Dose normalized AUC (0 to infinity) in rat at 50 mg/kg, po measured upto 72 hrs by LC-MS/MS analysis; format: ADME, organism-based; settings: in vivo
[3] = Dose normalized Cmax in rat at 50 mg/kg, po measured upto 72 hrs by LC-MS/MS analysis; format: ADME, organism-based; settings: in vivo
[4] = Change in normalised AUC (infinity) in rat at 50 mg/kg, po measured upto 72 hrs by LC-MS/MS analysis; format: ADME, organism-based; settings: in vivo
[5] = Stability in rat plasma assessed as parent compound remaining measured after 2 hrs by LC-MS/MS analysis; format: ADME, cell-free; settings: read-out: Stabilty
[6] = Change in normalised Cmax in rat at 50 mg/kg, po measured upto 72 hrs by LC-MS/MS analysis; format: ADME, organism-based; settings: in vivo
B16-F10 = assay: Antitumor activity against mouse B16-F10 cells implanted in C57BL/6 mouse assessed as reduction in tumor size at >= 287 micromol/kg, po BID administered from day 6 to day 11 and measured on day 11 by caliper method; format: functional, organism-based; settings: dose micromol/kg >=287
[7] = Tmax in male cynomolgus monkey at 225 mg/kg, po measured on day 1; format: ADME, organism-based, Macaca fascicularis; settings: in vivo
[8] = Tmax in female cynomolgus monkey at 675 mg/kg, po measured on day 1; format: ADME, organism-based, Macaca fascicularis; settings: in vivo
[9] = Tmax in male cynomolgus monkey at 675 mg/kg, po measured on day 1; format: ADME, organism-based, Macaca fascicularis; settings: in vivo
[10] = AUC (0 to 24 hrs) in male cynomolgus monkey at 675 mg/kg, po measured on day 1; format: ADME, organism-based, Macaca fascicularis; design: time < 24 hr, route oral, dose 675 mg/kg; settings: in vivo
[11] = Protein binding in human plasma; format: ADME, cell-free; settings: read-out: PPB
[12] = Protein binding in Beagle dog plasma; format: ADME, cell-free, Canis lupus familiaris; settings: read-out: PPB
[13] = AUC (0 to 24 hrs) in male cynomolgus monkey at 225 mg/kg, po measured on day 1; format: ADME, organism-based, Macaca fascicularis; design: time < 24 hr, route oral, dose 225 mg/kg; settings: in vivo, 24 h
[14] = Cmax in male cynomolgus monkey at 225 mg/kg, po measured on day 1; format: ADME, organism-based, Macaca fascicularis; design: route oral, dose 225 mg/kg; settings: in vivo
[15] = Tmax in female cynomolgus monkey at 375 mg/kg, po BID measured on day 8; format: ADME, organism-based, Macaca fascicularis; settings: in vivo
[16] = Cmax in female cynomolgus monkey at 675 mg/kg, po measured on day 1; format: ADME, organism-based, Macaca fascicularis; design: route oral, dose 675 mg/kg; settings: in vivo
[17] = Cmax in male cynomolgus monkey at 150 mg/kg, po BID measured on day 8; format: ADME, organism-based, Macaca fascicularis; design: route oral, dose 150 mg/kg; settings: in vivo
[18] = Drug accumulation in rat at 100 to 900 mg/kg, po BID; format: ADME, organism-based; settings: in vivo, dose 100-900 mg/kg
[19] = Cmax in male cynomolgus monkey at 675 mg/kg, po measured on day 1; format: ADME, organism-based, Macaca fascicularis; design: route oral, dose 675 mg/kg; settings: in vivo
[20] = AUC (0 to 24 hrs) in male cynomolgus monkey at 150 mg/kg, po BID measured on day 8; format: ADME, organism-based, Macaca fascicularis; design: time < 24 hr, route oral, dose 150 mg/kg; settings: in vivo
[21] = AUC (0 to 24 hrs) in female cynomolgus monkey at 375 mg/kg, po BID measured on day 8; format: ADME, organism-based, Macaca fascicularis; design: time < 24 hr, route oral, dose 375 mg/kg; settings: in vivo
[22] = Half life in female cynomolgus monkey at 675 mg/kg, po measured on day 1; format: ADME, organism-based, Macaca fascicularis; settings: in vivo
[23] = Tmax in male cynomolgus monkey at 150 mg/kg, po BID measured on day 8; format: ADME, organism-based, Macaca fascicularis; settings: in vivo
[24] = Drug accumulation in monkey at 75 to 375 mg/kg, po BID; format: ADME, organism-based, Macaca mulatta; settings: rhesus monkey, in vivo, dose 75-375 mg/kg
[25] = Cmax in female cynomolgus monkey at 375 mg/kg, po BID measured on day 8; format: ADME, organism-based, Macaca fascicularis; design: route oral, dose 375 mg/kg; settings: in vivo
[26] = Half life in male cynomolgus monkey at 675 mg/kg, po measured on day 1; format: ADME, organism-based, Macaca fascicularis; settings: in vivo
[27] = AUC (0 to 24 hrs) in female cynomolgus monkey at 675 mg/kg, po measured on day 1; format: ADME, organism-based, Macaca fascicularis; design: time < 24 hr, route oral, dose 675 mg/kg; settings: in vivo
[28] = Stability in human plasma assessed as parent compound remaining measured after 24 hrs by LC-MS/MS analysis; format: ADME, cell-free; settings: read-out: Stabilty
[29] = Stability in human plasma assessed as parent compound remaining measured after 6 hrs by LC-MS/MS analysis; format: ADME, cell-free; settings: read-out: Stabilty
[30] = Chemical stability of compound in saline assessed as compound remaining at 5 uM measured after 24 hrs by LC-MS/MS analysis; format: physicochemical; settings: read-out: Stabilty
[31] = Change in normalised Cmax in rat at 10 mg/kg, po measured upto 72 hrs by LC-MS/MS analysis; format: ADME, organism-based; settings: in vivo
[32] = Change in normalised AUCinfinity in rat at 10 mg/kg, po measured upto 72 hrs by LC-MS/MS analysis; format: ADME, organism-based; settings: in vivo
[33] = Chemical stability of compound in PBS buffer assessed as compound remaining at pH 7.4 at 5 uM measured after 6 hrs by LC-MS/MS analysis; format: physicochemical; settings: read-out: Stabilty
[34] = Dose normalized AUC (0 to infinity) in rat at 10 mg/kg, po measured upto 72 hrs by LC-MS/MS analysis; format: ADME, organism-based; settings: in vivo
[35] = Chemical stability of compound in PBS buffer assessed as compound remaining at pH 7.4 at 5 uM measured after 24 hrs by LC-MS/MS analysis; format: physicochemical; settings: read-out: Stabilty
[36] = Chemical stability of compound in simulated gastric fluid assessed as compound remaining at 5 uM measured after 24 hrs by LC-MS/MS analysis; format: ADME, physicochemical; settings: read-out: Stabilty
[37] = Chemical stability of compound in simulated intestinal fluid assessed as compound remaining at 5 uM measured after 24 hrs by LC-MS/MS analysis; format: ADME, physicochemical; settings: read-out: Stabilty
[38] = Chemical stability of compound in 0.1 N aqueous HCl buffer assessed as compound remaining at pH 1 at 5 uM measured after 1.5 hrs by LC-MS/MS analysis; format: physicochemical; settings: pH 1, 1.5 h
[39] = Chemical stability of compound in simulated intestinal fluid assessed as compound remaining at 5 uM measured after 3 hrs by LC-MS/MS analysis; format: ADME, physicochemical; settings: read-out: Stabilty
[40] = Chemical stability of compound in 0.1 N aqueous HCl buffer assessed as compound remaining at pH 1 at 5 uM measured after 24 hrs by LC-MS/MS analysis; format: physicochemical; settings: pH 1, 24 h
[41] = Dose normalized Cmax in rat at 10 mg/kg, po measured upto 72 hrs by LC-MS/MS analysis; format: ADME, organism-based; settings: in vivo
[42] = Chemical stability of compound in simulated gastric fluid assessed as compound remaining at 5 uM measured after 1.5 hrs by LC-MS/MS analysis; format: ADME, physicochemical; settings: read-out: Stabilty
[43] = Change in Cmax in rat at 185 umol/kg, po measured upto 72 hrs by LC-MS/MS analysis; format: ADME, organism-based; settings: in vivo, at 185 µmol/kg
[44] = Change in Cmax in rat at 37 umol/kg, po measured upto 72 hrs by LC-MS/MS analysis; format: ADME, organism-based; settings: in vivo, at 37 µmol/kg
[45] = Change in AUC (infinity) in rat at 37 umol/kg, po measured upto 72 hrs by LC-MS/MS analysis; format: ADME, organism-based; settings: in vivo, at 37 µmol/kg

CCOC(=O)N[C@H](Cc1cn(C)c2ccccc12)C(=O)O
remaining at 2 h [1]: 97% | AUC/dose [2]: 229 µM·h | Cmax/dose [3]: 6000 nM | Activity [4]: -83% | remaining at 2 h [5]: 100% | Activity [6]: -78%

CCOC(=O)[C@@H](Cc1cn(C)c2ccccc12)NC(=O)[C@@H](N)CC(C)C
Activity (B16-F10): Active

CC(C)C[C@H](N)C(=O)N[C@H](Cc1cn(C)c2ccccc12)C(=O)O
Tmax [7]: 2 h | Tmax [8]: 1.5 h | Tmax [9]: 1 h | AUC [10]: 2.88 µM·h | fraction unbound [11]: > 0.5 | fraction unbound [12]: > 0.5 | AUC [13]: 0.858 µM·h | Cmax [14]: 353 nM | Tmax [15]: 2 h | Cmax [16]: 1580 nM | Cmax [17]: 192 nM | Drug metabolism [18]: Metabolite_Notdetected | Cmax [19]: 1760 nM | AUC at 24 h [20]: 0.0806 µM·h | AUC at 24 h [21]: 0.703 µM·h | half-life [22]: 8.2 h | Tmax [23]: 1 h | Drug metabolism [24]: Metabolite_Notdetected | Cmax [25]: 308 nM | half-life [26]: 3.7 h | AUC [27]: 3.61 µM·h

CCOC(=O)[C@H](N)Cc1cn(C)c2ccccc12.Cl
remaining at 2 h [1]: 0% | AUC/dose [2]: 2988 µM·h | remaining at 24 h [28]: 35% | remaining at 6 h [29]: 93% | remaining at 24 h, 5 µM [30]: 100% | Cmax/dose [3]: 66000 nM | Activity [31]: 27% | Activity [32]: -11% | remaining at 6 h, 5 µM [33]: 94% | AUC/dose [34]: 454 µM·h | remaining at 24 h, 5 µM [35]: 52% | remaining at 24 h, 5 µM [36]: 85% | remaining at 24 h, 5 µM [37]: 0% | Stabilty [38]: 59% | remaining at 3 h, 5 µM [39]: 64% | Stabilty [40]: 100% | Activity [4]: 126% | remaining at 2 h [5]: 0% | Cmax/dose [41]: 22000 nM | Activity [6]: 143% | remaining at 1.5 h, 5 µM [42]: 83%

Cn1cc(C[C@@H](N)C(=O)OCC(O)CO)c2ccccc21.O=P(O)(O)O (stereo partly drawn)
Activity [43]: 153% | Activity [44]: 37% | Activity [45]: 46%

Cn1cc(C[C@@H](NC(=O)OCC(C)(C)C)C(=O)O)c2ccccc21
remaining at 2 h [1]: 100% | AUC/dose [2]: 5.5 µM·h | Cmax/dose [3]: 150 nM | Activity [4]: -100% | remaining at 2 h [5]: 100% | Activity [6]: -99%
